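Results reflect a 48-hour exposure of cells in 96-well plates to compound at five concentrations. The concentration for 50% growth inhibition is given as GI50.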 The source made the active and inactive calls. Cut-off read from the data, not from the text of the source: active = GI50 up to about 1.1 µM and inactive = higher.
Tests used:
Assay in all cases: NCI anticancer screen, dose series, 48 h
[1] = tested on: 786-0
[2] = tested on: ACHN
[3] = tested on: EKVX
[4] = tested on: M19-MEL
[5] = tested on: SN12C
[6] = tested on: A549
[7] = tested on: HT-29
[8] = tested on: NCI-H23
[9] = tested on: HOP-92
[10] = tested on: NCI-H522
[11] = tested on: U-251
[12] = tested on: HOP-18
[13] = tested on: SF-539
[14] = tested on: IGROV-1
[15] = tested on: SF-268
[16] = tested on: OVCAR-5
[17] = tested on: COLO 205
[18] = tested on: DLD-1
[19] = tested on: OVCAR-8
[20] = tested on: UACC-257
[21] = tested on: KM-20L2
[22] = tested on: UO-31
[23] = tested on: NCI-H226
[24] = tested on: M14
[25] = tested on: HOP-62
[26] = tested on: HCC 2998
[27] = tested on: LXFL 529
[28] = tested on: SNB-19
[29] = tested on: SNB-78
[30] = tested on: SR
[31] = tested on: K562
[32] = tested on: HCT-116
[33] = tested on: KM12
[34] = tested on: SF-295
[35] = tested on: Malme-3M
[36] = tested on: OVCAR-4
[37] = tested on: OVCAR-3
[38] = tested on: RXF 393
[39] = tested on: MOLT-4
[40] = tested on: SW-620
[41] = tested on: SK-OV-3
[42] = tested on: HCT-15
[43] = tested on: SK-MEL-28
[44] = tested on: SK-MEL-2
[45] = tested on: HL-60
[46] = tested on: UACC-62
[47] = tested on: NCI-H460
[48] = tested on: DMS-273
[49] = tested on: CAKI-1
[50] = tested on: CCRF-CEM
[51] = tested on: RPMI-8226
[52] = tested on: SK-MEL-5
[53] = tested on: SNB-75
[54] = tested on: TK-10
[55] = tested on: LOX IMVI
[56] = tested on: DMS-114
[57] = tested on: A498

For `COc1ccc(NC(=O)CC(=O)N2N=C(N(CCC#N)c3cccc(C)c3)CC2c2ccccc2)cc1` (stereo not given), the GI50 [1] was > 100 µM (inactive), the GI50 [2] was > 100 µM (inactive) and the GI50 [3] was > 100 µM (inactive). For the same compound, the GI50 [4] was > 100 µM (inactive), the GI50 [5] was > 100 µM (inactive) and the GI50 [6] was > 100 µM (inactive). For the same compound, the GI50 [7] was > 100 µM (inactive), the GI50 [8] was > 100 µM (inactive) and the GI50 [9] was > 100 µM (inactive). The GI50 [10] was > 100 µM (inactive), the GI50 [11] was > 100 µM (inactive) and the GI50 [12] was > 100 µM (inactive). For the same compound, the GI50 [13] was > 100 µM (inactive), the GI50 [14] was > 100 µM (inactive) and the GI50 [15] was > 100 µM (inactive). For the same compound, the GI50 [16] was > 100 µM (inactive), the GI50 [17] was > 100 µM (inactive) and the GI50 [18] was > 100 µM (inactive). The GI50 [19] was > 100 µM (inactive), the GI50 [20] was > 100 µM (inactive) and the GI50 [21] was > 100 µM (inactive). The GI50 [22] was > 100 µM (inactive), the GI50 [23] was > 100 µM (inactive) and the GI50 [24] was > 100 µM (inactive). For the same compound, the GI50 [25] was > 100 µM (inactive), the GI50 [26] was > 100 µM (inactive) and the GI50 [27] was > 100 µM (inactive). The GI50 [28] was > 100 µM (inactive), the GI50 [29] was > 100 µM (inactive) and the GI50 [30] was > 100 µM (inactive). The GI50 [31] was > 100 µM (inactive), the GI50 [32] was > 100 µM (inactive) and the GI50 [33] was > 100 µM (inactive). The GI50 [34] was > 100 µM (inactive), the GI50 [35] was > 100 µM (inactive) and the GI50 [36] was > 100 µM (inactive). The GI50 [37] was > 100 µM (inactive), the GI50 [38] was > 100 µM (inactive) and the GI50 [39] was > 100 µM (inactive). The GI50 [40] was > 100 µM (inactive), the GI50 [41] was > 100 µM (inactive) and the GI50 [42] was over 100 µM. The GI50 [43] was > 100 µM (inactive), the GI50 [44] was > 100 µM (inactive) and the GI50 [45] was > 100 µM (inactive). The GI50 [46] was > 100 µM (inactive), the GI50 [47] was > 100 µM (inactive) and the GI50 [48] was > 100 µM (inactive). The GI50 [49] was > 100 µM (inactive), the GI50 [50] was > 100 µM (inactive) and the GI50 [51] was > 100 µM (inactive). For the same compound, the GI50 [52] was > 100 µM (inactive) and the GI50 [53] was > 100 µM (inactive).
`CC(=O)OC1C=CC2CCN3C(=O)c4cc5c(cc4[C@H]1C23)OCO5` (stereo not given in full) was tested, and the GI50 [1] was > 100 µM (inactive), the GI50 [2] was > 100 µM (inactive) and the GI50 [3] was > 100 µM (inactive). For the same compound, the GI50 [54] was > 100 µM (inactive), the GI50 [4] was > 100 µM (inactive) and the GI50 [5] was > 100 µM (inactive). For the same compound, the GI50 [6] was > 100 µM (inactive), the GI50 [7] was > 100 µM (inactive) and the GI50 [8] was > 100 µM (inactive). The GI50 [10] was > 100 µM (inactive), the GI50 [11] was > 100 µM (inactive) and the GI50 [13] was > 100 µM (inactive). The GI50 [14] was > 100 µM (inactive), the GI50 [15] was > 100 µM (inactive) and the GI50 [17] was > 100 µM (inactive). For the same compound, the GI50 [18] was > 100 µM (inactive), the GI50 [19] was > 100 µM (inactive) and the GI50 [20] was > 100 µM (inactive). The GI50 [21] was > 100 µM (inactive), the GI50 [22] was > 100 µM (inactive) and the GI50 [23] was > 100 µM (inactive). For the same compound, the GI50 [24] was > 100 µM (inactive), the GI50 [25] was > 100 µM (inactive) and the GI50 [26] was > 10 µM (inactive). For the same compound, the GI50 [27] was > 100 µM (inactive), the GI50 [55] was > 100 µM (inactive) and the GI50 [28] was > 100 µM (inactive). For the same compound, the GI50 [29] was > 100 µM (inactive), the GI50 [30] was > 100 µM (inactive) and the GI50 [31] was > 100 µM (inactive). For the same compound, the GI50 [56] was > 100 µM (inactive), the GI50 [32] was > 100 µM (inactive) and the GI50 [33] was > 100 µM (inactive). For the same compound, the GI50 [34] was > 100 µM (inactive), the GI50 [35] was > 100 µM (inactive) and the GI50 [37] was > 100 µM (inactive). The GI50 [38] was > 100 µM (inactive), the GI50 [39] was > 100 µM (inactive) and the GI50 [40] was > 100 µM (inactive). The GI50 [41] was > 100 µM (inactive), the GI50 [42] was over 100 µM and the GI50 [43] was > 100 µM (inactive). The GI50 [45] was > 100 µM (inactive), the GI50 [46] was > 100 µM (inactive) and the GI50 [47] was > 100 µM (inactive). For the same compound, the GI50 [48] was > 100 µM (inactive), the GI50 [50] was > 100 µM (inactive) and the GI50 [51] was > 100 µM (inactive). The GI50 [53] was > 100 µM (inactive).
For `COc1ccc(C(=O)C(c2ccc(OC)cc2)C2(O)C(=O)Nc3ccc([N+](=O)[O-])cc32)cc1` (stereo not given), the GI50 [1] was > 100 µM (inactive), the GI50 [2] was > 100 µM (inactive) and the GI50 [3] was > 100 µM (inactive). For the same compound, the GI50 [54] was > 100 µM (inactive), the GI50 [4] was > 100 µM (inactive) and the GI50 [5] was 12.1 µM (inactive). For the same compound, the GI50 [6] was > 100 µM (inactive), the GI50 [7] was > 100 µM (inactive) and the GI50 [8] was > 100 µM (inactive). For the same compound, the GI50 [9] was 32.9 µM (inactive), the GI50 [10] was > 100 µM (inactive) and the GI50 [11] was > 100 µM (inactive). The GI50 [13] was 11.3 µM (inactive), the GI50 [14] was > 100 µM (inactive) and the GI50 [15] was > 100 µM (inactive). For the same compound, the GI50 [16] was > 100 µM (inactive), the GI50 [17] was > 100 µM (inactive) and the GI50 [18] was > 100 µM (inactive). The GI50 [19] was > 100 µM (inactive), the GI50 [20] was > 100 µM (inactive) and the GI50 [57] was 17.7 µM (inactive). The GI50 [21] was > 100 µM (inactive), the GI50 [22] was > 100 µM (inactive) and the GI50 [23] was > 100 µM (inactive). The GI50 [24] was > 100 µM (inactive), the GI50 [25] was > 100 µM (inactive) and the GI50 [27] was > 100 µM (inactive). The GI50 [28] was > 100 µM (inactive), the GI50 [29] was > 100 µM (inactive) and the GI50 [30] was 68.5 µM (inactive). The GI50 [31] was > 100 µM (inactive), the GI50 [56] was 48.8 µM (inactive) and the GI50 [32] was > 100 µM (inactive). For the same compound, the GI50 [33] was > 100 µM (inactive), the GI50 [34] was > 100 µM (inactive) and the GI50 [35] was > 100 µM (inactive). For the same compound, the GI50 [36] was > 100 µM (inactive), the GI50 [37] was > 100 µM (inactive) and the GI50 [38] was > 100 µM (inactive). The GI50 [39] was > 100 µM (inactive), the GI50 [40] was > 100 µM (inactive) and the GI50 [41] was > 100 µM (inactive). For the same compound, the GI50 [42] was over 100 µM, the GI50 [43] was > 100 µM (inactive) and the GI50 [44] was > 100 µM (inactive). For the same compound, the GI50 [45] was 70.8 µM (inactive), the GI50 [46] was > 100 µM (inactive) and the GI50 [47] was > 100 µM (inactive). The GI50 [48] was > 100 µM (inactive), the GI50 [49] was > 100 µM (inactive) and the GI50 [50] was > 100 µM (inactive). The GI50 [51] was > 100 µM (inactive) and the GI50 [53] was 32.3 µM (inactive).
